Calls of active or inactive are those of the source. The rule behind the calls is not given here.
Tests used:
[1] = biological target: T1, Peroxisome proliferator-activated receptor alpha (Homo sapiens) (UniProt Q07869); assay: Agonist activity at PPAR-alpha (unknown origin) by luciferase reporter gene assay
T1 sequence (whole entry): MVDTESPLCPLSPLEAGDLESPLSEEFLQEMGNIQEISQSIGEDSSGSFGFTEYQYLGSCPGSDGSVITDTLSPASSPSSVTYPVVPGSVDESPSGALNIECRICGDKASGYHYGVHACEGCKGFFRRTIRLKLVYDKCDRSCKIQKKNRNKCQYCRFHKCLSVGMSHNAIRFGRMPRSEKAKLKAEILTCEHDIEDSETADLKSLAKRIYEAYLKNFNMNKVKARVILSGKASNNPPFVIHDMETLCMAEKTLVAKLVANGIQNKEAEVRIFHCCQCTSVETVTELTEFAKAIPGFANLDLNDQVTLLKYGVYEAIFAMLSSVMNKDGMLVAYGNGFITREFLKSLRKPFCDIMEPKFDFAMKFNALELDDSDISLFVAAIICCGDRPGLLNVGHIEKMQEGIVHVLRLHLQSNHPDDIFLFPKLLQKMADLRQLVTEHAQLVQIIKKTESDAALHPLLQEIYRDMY

[2] = biological target: Oxysterols receptor LXR-alpha (Homo sapiens, UniProt Q13133); assay: Antagonist activity at human LXR-alpha transfected in HEK293 cells after 16 hrs by luciferase reporter gene assay in presence of 0.3 uM N-(4-(1,1,1,3,3,3-hexafluoro-2-hydroxypropan-2-yl)phenyl)-N-(2,2,2-trifluoroethyl)benzenesulfonamide; assay type: cell-based
Sequence of Oxysterols receptor LXR-alpha (Q13133 whole entry): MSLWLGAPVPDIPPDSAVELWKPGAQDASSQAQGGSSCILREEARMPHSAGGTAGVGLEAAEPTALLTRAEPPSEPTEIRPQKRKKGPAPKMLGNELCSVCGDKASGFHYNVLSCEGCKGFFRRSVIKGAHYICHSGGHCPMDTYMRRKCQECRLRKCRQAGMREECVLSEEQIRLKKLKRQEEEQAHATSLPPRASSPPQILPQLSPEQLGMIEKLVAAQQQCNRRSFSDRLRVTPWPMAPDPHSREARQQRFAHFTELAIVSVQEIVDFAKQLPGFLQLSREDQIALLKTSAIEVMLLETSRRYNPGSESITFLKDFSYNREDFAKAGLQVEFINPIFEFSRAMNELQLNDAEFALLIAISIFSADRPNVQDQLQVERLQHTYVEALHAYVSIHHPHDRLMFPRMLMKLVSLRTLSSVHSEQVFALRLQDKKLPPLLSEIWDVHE

[3] = biological target: T2, Oxysterols receptor LXR-beta (Homo sapiens, UniProt P55055); assay: Antagonist activity at human LXR-beta transfected in HEK293 cells after 16 hrs by luciferase reporter gene assay in presence of 0.1 uM N-(4-(1,1,1,3,3,3-hexafluoro-2-hydroxypropan-2-yl)phenyl)-N-(2,2,2-trifluoroethyl)benzenesulfonamide; assay type: cell-based
T2 sequence (P55055 whole entry): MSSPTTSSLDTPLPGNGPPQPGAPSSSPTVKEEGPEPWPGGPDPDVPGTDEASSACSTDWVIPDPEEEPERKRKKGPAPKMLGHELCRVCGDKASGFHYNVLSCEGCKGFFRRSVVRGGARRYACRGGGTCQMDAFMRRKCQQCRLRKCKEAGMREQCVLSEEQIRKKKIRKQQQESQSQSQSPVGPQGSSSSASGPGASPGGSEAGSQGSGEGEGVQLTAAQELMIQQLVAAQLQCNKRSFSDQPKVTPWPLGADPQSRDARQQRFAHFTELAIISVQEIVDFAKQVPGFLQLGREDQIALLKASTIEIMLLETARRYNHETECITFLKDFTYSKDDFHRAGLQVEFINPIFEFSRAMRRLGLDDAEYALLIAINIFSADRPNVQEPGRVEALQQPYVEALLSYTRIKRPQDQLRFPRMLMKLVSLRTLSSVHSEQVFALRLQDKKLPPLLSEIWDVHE

[4] = tested on: THP-1; assay: Inhibition of LPS-induced IL-6 production in human THP1 cells transfected with LXR-beta CRISPR/Cas9 knockout plasmid at 5 uM after 18 hrs by ELISA; assay type: functional, cell-based
[5] = biological target: T3, Peroxisome proliferator-activated receptor gamma (Homo sapiens) (UniProt P37231); assay: Agonist activity at PPAR-gamma (unknown origin) by luciferase reporter gene assay
T3 sequence (whole entry): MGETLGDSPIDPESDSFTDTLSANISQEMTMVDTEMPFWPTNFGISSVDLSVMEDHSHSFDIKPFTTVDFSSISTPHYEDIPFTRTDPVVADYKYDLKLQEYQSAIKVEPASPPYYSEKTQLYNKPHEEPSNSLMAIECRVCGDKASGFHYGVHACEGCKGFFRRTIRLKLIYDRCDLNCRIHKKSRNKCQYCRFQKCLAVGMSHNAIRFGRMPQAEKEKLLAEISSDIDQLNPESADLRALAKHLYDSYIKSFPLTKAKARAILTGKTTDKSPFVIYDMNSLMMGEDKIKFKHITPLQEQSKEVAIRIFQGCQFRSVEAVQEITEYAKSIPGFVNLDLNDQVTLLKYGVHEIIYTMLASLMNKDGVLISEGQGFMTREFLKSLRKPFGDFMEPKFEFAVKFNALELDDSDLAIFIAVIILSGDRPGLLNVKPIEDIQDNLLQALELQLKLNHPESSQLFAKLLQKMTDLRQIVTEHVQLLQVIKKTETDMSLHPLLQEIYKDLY

[6] = biological target: T4, Peroxisome proliferator-activated receptor delta (Homo sapiens) (UniProt Q03181); assay: Agonist activity at PPAR-delta (unknown origin) by luciferase reporter gene assay
T4 sequence (whole entry): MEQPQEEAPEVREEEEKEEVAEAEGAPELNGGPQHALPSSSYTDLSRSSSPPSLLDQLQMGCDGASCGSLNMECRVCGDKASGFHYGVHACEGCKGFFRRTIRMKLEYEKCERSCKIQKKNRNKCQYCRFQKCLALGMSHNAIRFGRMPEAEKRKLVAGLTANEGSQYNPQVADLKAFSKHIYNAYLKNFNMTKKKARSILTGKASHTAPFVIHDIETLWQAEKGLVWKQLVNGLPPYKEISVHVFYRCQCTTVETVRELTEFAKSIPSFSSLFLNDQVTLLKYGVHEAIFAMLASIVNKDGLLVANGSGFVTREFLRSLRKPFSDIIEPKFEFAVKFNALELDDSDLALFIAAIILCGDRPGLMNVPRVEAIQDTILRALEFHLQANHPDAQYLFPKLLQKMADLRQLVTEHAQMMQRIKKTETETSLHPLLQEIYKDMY

[7] = biological target: T2, Oxysterols receptor LXR-beta; assay: Binding affinity to LXR-beta ligand binding domain (unknown origin) by TR-FRET assay in presence of 0.1 uM agonist N-(4-(1,1,1,3,3,3-hexafluoro-2-hydroxypropan-2-yl)phenyl)-N-(2,2,2-trifluoroethyl)benzenesulfonamide
[8] = tested on: THP-1; assay: Effect on ABCA1 gene expression in human THP1 cells at 10 uM by RT-PCR analysis; assay type: functional, cell-based
[9] = tested on: THP-1; assay: Effect on SREBP-1c gene expression in human THP1 cells at 10 uM by RT-PCR analysis; assay type: functional, cell-based

## COc1ccc(/C=C/c2ccccc2N2C(=O)c3ccccc3C2=O)cc1OC
[1]
  inhibition: Active
[2]
  IC50: 3.3 µM
[3]
  IC50: 4.3 µM
[4]
  inhibition: inactive
[5]
  inhibition: Active
[6]
  inhibition: Active
[7]
  IC50: 1.8 µM
[8]
  Activity: inactive
[9]
  Activity: inactive

## COc1ccc(/C=C\c2ccccc2N2C(=O)c3ccccc3C2=O)cc1OC
[2]
  IC50: 17 µM
[3]
  IC50: 21 µM

Source: ChEMBL document CHEMBL3621179, “Styrylphenylphthalimides as Novel Transrepression-Selective Liver X Receptor (LXR) Modulators” (ACS Med Chem Lett, 2015)
